This is an account of results in patent publication US20260216169A1, “NAPHTHYLAMIDE COMPOUND, AND PREPARATION METHOD THEREFOR AND USE THEREOF” (SHENZHEN CHIPSCREEN BIOSCIENCES CO., LTD., priority 2022, published 2026).

Data set [1] concerns the target T1, VEGFR2 (Homo sapiens, UniProt P35968).
T1 construct: purchased Carna 08-191
Kind of data set: HTRF KinEASE test against VEGFR2, reported as relative selectivity IC50-VEGFR2/IC50-Aurora B. The following applies: ratio of IC50 against VEGFR2 to IC50 against Aurora B. Type of data set: biochemical. On the procedure: (§1) Preparation of working solutions of compounds in DMSO with gradient concentrations: 0.2 mM solutions of the compounds in DMSO were prepared and serially diluted with DMSO to form working solutions with 10 gradient concentrations (corresponding to final compound concentrations of 1000 nM, 300 nM, 100 nM, 30 nM, 10 nM, 3 nM, 1 nM, 0.3 nM, 0.1 nM, and 0.03 nM in the reaction system).
(§2) Tests of inhibitory activity against Aurora B kinase and VEGFR2: The half maximal inhibitory concentrations (IC50) of the compounds against Aurora B kinase and VEGFR2 were determined using HTRF KinEASE-TK kit (Cisbio, Cat #62TKOPEC) and HTRF KinEASE-STK kit (Cisbio, Cat #61ST2BLE). A 2× kinase & Metal solution (Aurora B/Cat #05-102 and VEGFR2/Cat #08-191, both purchased from Carna) and a 2× Substrate & ATP solution (for Aurora B and VEGFR2, substrates S2 and TK were used, respectively) were prepared according to the kit instructions. The working solutions of the test compounds with gradient concentrations were added to a 384-well plate at 25 nL/well, and 2.5 μL of the 2× kinase & Metal solution was added to each well. The plate was sealed with a plate-sealing film, well shaken, centrifuged, and then incubated at 25° C. for 10 min. Then, the 2× Substrate & ATP solution was added at 2.5 μL/well, and the plate was incubated again at 25° C. for 30 min. Finally, a 2× XL665 & Antibody kinase detection reaction solution was added at 5 μL/well. After the plate was incubated at 25° C. for 60 min, the fluorescence signals at wavelengths of 665 nm and 620 nm in each well were measured by a microplate reader.
(§3) The 665 nm/620 nm fluorescence signal ratio (X) of each well was calculated. With the compound-free well as a negative control (Y) and the enzyme-free well as a positive control (Z), the inhibition rate of the compound in each test well against the corresponding kinase was calculated using the formula: inhibition (%)=100%−(X−Z)/(Y−Z)×100%, and the half maximal inhibitory concentration (IC50) of each compound against the corresponding kinase was calculated by GraphPad 7.0 software.

For data set [2], the system named is Molt-4 cells. As to the kind of experiment: Effects on tumor cell cycle, PI staining and flow cytometry. Type of data set: cell-based, human. The note with it: 48 h. The source says: When the activity of Aurora B kinase is inhibited in tumor cells, the arrangement and separation of chromosomes are blocked, leading to cytokinesis failure and the formation of tetraploid or polyploid cells. Moreover, severe genomic instability and mitotic catastrophe result in apoptosis. The intracellular DNA content can be mapped with propidium iodide (PI), a fluorescent dye that specifically binds to nucleic acid, so that cell states can be distinguished into sub-G0/G1 (apoptosis), G0/G1, S, G2/M (tetraploid), and polyploid states.
Experimental process: Molt-4 cells (human acute lymphoblastic leukemia cells, CRL-1582) were purchased from the American Type Culture Collection (ATCC). Molt-4 cells in the logarithmic growth phase were collected from suspension culture and counted. The cells were seeded into a 6-well plate at 10^6 cells/well and cultured overnight under normal conditions. The test compounds were prepared as 1 mM and 3 mM solutions in DMSO, and the solutions in DMSO were diluted 50-fold with culture medium. Finally, the above solutions were added to the culture system in a volume ratio of 1:19, achieving a final compound concentration of 1 μM or 3 μM in each well. After 48 h of incubation, the cells were collected by centrifugation. Each cell sample was resuspended in 300 μL of PBS, and the suspension was added dropwise to 700 μL of pre-cooled absolute ethanol. Then the mixture was gently inverted several times for thorough mixing to complete cell collection and fixation. The samples were left to stand at 4° C. for more than 12 h and then analyzed by flow cytometry.
A working dye solution was prepared by homogeneously mixing PBS, a 10 mg/mL PI stock solution, and a 10 mg/mL RNase A solution in a ratio of 1000:5:2. The fixed cell samples were centrifuged at 4° C. and 1000 rpm for 10 min. The supernatants were completely removed using a pipette, and the cells were washed twice with PBS and resuspended in the above working dye solution at […]. After incubation in a dark place at 37° C. for 30 min, the cells were filtered using a 200-mesh stainless steel strainer, and the filtrate was loaded onto a flow cytometer for cell cycle analysis (10,000 cells counted per sample).
Histograms showing DNA contents were obtained from the flow cytometry analysis, and the cell cycle distribution in each sample was analyzed using the flow cytometry data analysis software FlowJo. The mean (X) and standard deviation (SD) were calculated, and data were represented as X±SD. The apoptosis and the proportions of tetraploid and polyploid cells after Molt-4 cells were treated with different doses of the test compounds are shown in Table 3 below.
(In general: Flow cytometry measures light scatter and fluorescence of single cells or particles in a stream.)

Data set [3] is described as follows: Brain permeation assay in mice. Type of data set: in vivo. The note with it: B/C, mouse, oral; female mice, 5 mg/kg intragastric, 4 h after administration; read-out: Brain permeation (ratio of compound concentration in brain tissue to concentration in plasma). As to the method:
The objective of this example was to test whether the compounds of the present disclosure are able to cross the blood-brain barrier (BBB). The compounds of the present disclosure were dissolved in a vehicle containing 5% dimethyl sulfoxide, 60% 1,3-propanediol, and 35% purified water, and intragastrically administered to B/C female mice aged 6 weeks (purchased from Guangdong Medical Laboratory Animal Center) at 5 mg/kg. The animals were sacrificed 4 h after the administration, and blood and brain tissue samples were collected. The blood samples were anticoagulated with K2-EDTA and centrifuged at 5000 rpm for 5 min to separate plasma. The brain tissue samples were accurately weighed and homogenized with a certain amount of phosphate-buffered saline (PBS) solution, and the biological samples were stored at −80° C. before analysis. After sample extraction, the compound concentration was determined using a liquid chromatography-tandem mass spectrometry (LC-MS/MS) system. Brain permeation was defined as the ratio of the compound concentration in brain tissue to the concentration in plasma.

The subject of data set [4] is PANC02 cells. As to the kind of experiment: Anti-tumor efficacy in PANC02 mouse pancreatic cancer graft tumor model. Type of data set: in vivo, C57BL/6 mice. The note with it: for Mean tumor volumes (mm^3 ± SEM), Day 9 / Tumor volume inhibition rate (% TGI), Day 9: 10 mg/kg/day intragastric once daily; for Mean tumor volumes (mm^3 ± SEM), Day 0: 10 mg/kg/day intragastric, grouping and administration Day 0. The source says: A mouse PANC02 pancreatic cancer graft tumor model was constructed: the experimental animals were C57BL/6 mice (female, 6 weeks old), the tumor cells were PANC02 cells (mouse pancreatic cancer cells), and the cell culture medium was a DMEM culture medium containing 1% double antibiotic and 10% fetal bovine serum. PANC02 cells in the logarithmic growth phase and in good condition were collected and inoculated subcutaneously into the left flank of C57BL/6 mice at a concentration of 0.9×10^6 cells/0.2 mL. The long diameters (a, mm) and short diameters (b, mm) of the tumors were measured using a vernier caliper, and tumor volume (V, mm^3) was calculated using the formula: V=½a×b^2. Tumor volume was measured 2-3 times weekly using the vernier caliper. When the mean tumor volumes of the mice reached 190 mm^3 or above, the mice were divided into 4 groups of 8 and dosed, and the day of grouping was represented by day 0. The groups were as follows: a solvent control group (0.2% aqueous solution of CMC-Na), a compound I-9 group (10 mg/kg/day), a control molecule 01 (chiauranib) group (10 mg/kg/day), and a control molecule 02 group (10 mg/kg/day). All four groups received intragastric administration once daily for consecutive days, and the experiment was terminated on the day of the last dose.
The tumor volume results were represented as mean and standard error (Mean±S.E.M). Intergroup comparisons were performed using the Mann Whitney test. If p<0.05, the difference is considered to be statistically significant. The tumor volume inhibition rate (TGI) was calculated using the formula: TGI (%)=[1−(Ti−T0)/(Vi−V0)]×100% (Ti: mean tumor volume of the treatment group on day i of administration; TO: mean tumor volume of the treatment group on day 0 of administration; Vi: mean tumor volume of the solvent control group on day i of administration; V0: mean tumor volume of the solvent control group on day 0 of administration).

In data set [5] the target is T2, Aurora B kinase (Homo sapiens, UniProt Q96GD4). Kind of data set: HTRF KinEASE test of inhibitory activity against Aurora B kinase. Type of data set: biochemical. Details: purchased Carna 05-102. The note with it: Carna kinase, substrate S2. On the procedure: as §1, §2, §3
Target sequence in this assay (Q96GD4 whole entry): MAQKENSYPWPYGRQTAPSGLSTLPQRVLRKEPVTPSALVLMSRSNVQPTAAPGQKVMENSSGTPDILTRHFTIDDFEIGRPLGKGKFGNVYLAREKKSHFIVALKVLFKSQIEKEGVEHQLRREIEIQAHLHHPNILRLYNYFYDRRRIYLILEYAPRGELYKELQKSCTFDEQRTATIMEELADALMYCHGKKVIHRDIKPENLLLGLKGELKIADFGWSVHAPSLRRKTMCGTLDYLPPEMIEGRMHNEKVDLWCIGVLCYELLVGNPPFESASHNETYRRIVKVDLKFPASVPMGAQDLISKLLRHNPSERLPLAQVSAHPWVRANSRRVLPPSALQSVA
Target sequence in this assay (Q9NQS7 803-916 partner limits assumed): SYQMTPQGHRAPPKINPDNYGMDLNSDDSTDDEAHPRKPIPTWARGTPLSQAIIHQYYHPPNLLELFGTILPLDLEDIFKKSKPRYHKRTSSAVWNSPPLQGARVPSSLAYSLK
The target of data set [6] is T2, Aurora B kinase. As to the kind of experiment: In vitro cytological assays of Aurora B kinase inhibition. Type of data set: cell-based. Further details: dose or concentration left out as unconfirmed.
Target sequence in this assay (Q96GD4 whole entry): as the sequence (Q96GD4 whole entry) above
The conditions of data set [7]: human, 65-mg treatment group, phase I; cited from earlier work.

In general, IC50 refers to the concentration that inhibits the measured activity by half.

T1 sequence (P35968 790-1356 limits assumed): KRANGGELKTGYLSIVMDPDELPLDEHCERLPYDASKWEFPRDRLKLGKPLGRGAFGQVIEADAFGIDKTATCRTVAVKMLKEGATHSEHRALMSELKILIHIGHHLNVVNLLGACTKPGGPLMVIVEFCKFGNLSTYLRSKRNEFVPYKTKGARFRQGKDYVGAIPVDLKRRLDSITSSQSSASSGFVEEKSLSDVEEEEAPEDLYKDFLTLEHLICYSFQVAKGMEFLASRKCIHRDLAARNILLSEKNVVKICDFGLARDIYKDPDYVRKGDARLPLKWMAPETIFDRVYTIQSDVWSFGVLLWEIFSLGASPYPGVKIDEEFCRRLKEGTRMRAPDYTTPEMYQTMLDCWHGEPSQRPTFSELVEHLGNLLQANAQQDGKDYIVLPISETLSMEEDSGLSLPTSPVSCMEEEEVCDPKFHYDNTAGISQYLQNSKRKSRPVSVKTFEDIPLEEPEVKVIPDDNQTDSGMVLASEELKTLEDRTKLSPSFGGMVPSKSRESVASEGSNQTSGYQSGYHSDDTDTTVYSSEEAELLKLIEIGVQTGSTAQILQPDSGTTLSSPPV

Regarding `COc1ccc2c(Oc3ccc4c(C(=O)Nc5ccc(F)c(F)c5N)cccc4c3)ccnc2c1` [Compound I-9], in data set [1], the “Selectivity for Aurora B IC50-VEGFR2/IC50-Aurora B” value (“Selectivity” below) came out at 17.57. Also, in data set [2] (dose 1 μM), the “Apoptosis (%) DNA < 2N” value is given as 24.60 ± 8.06%, the “Polyploid (%) DNA > 4N” value was determined as 55.15 ± 15.20%, the “Tetraploid (%) DNA = 4N” value is 6.07 ± 7.25% and the “Total (apoptosis + tetraploid + polyploid)” value (“Total” for short) was determined as 85.82. In data set [2] (dose 3 μM), the “Apoptosis (%) DNA < 2N” value was determined as 21.35 ± 5.87%, the “Polyploid (%) DNA > 4N” value stood at 56.10 ± 12.02%, the “Tetraploid (%) DNA = 4N” value was determined as 5.39 ± 6.10% and the “Total” value worked out at 82.84. For the same compound, the Kp at 4 h in data set [3] was determined as 0.6. Moreover, in data set [4], the “Mean tumor volumes (mm^3 ± SEM), Day 9” value is 145.9 ± 38.5 mm^3; the “Tumor volume inhibition rate (% TGI), Day 9” value is 114.0%; the “Mean tumor volumes (mm^3 ± SEM), Day 0” value is 193.9 ± 38.5 mm^3. Further, the “Tumor volume compared with solvent control group” value in data set [4] (Day 9, Mann Whitney test, p<0.001) is listed as “significantly reduced tumor volumes”. In addition, the “Tumor volume compared with control molecule 01 (chiauranib) group” value in data set [4] (Day 9, Mann Whitney test, p<0.01) was “significantly reduced tumor volumes”. Moreover, the “Tumor volume compared with control molecule 02 group” value in data set [4] (Day 9, Mann Whitney test, p<0.05) is “significantly reduced tumor volumes”. Moreover, the IC50 in data set [5] came out at 1.79 nM.

As to `COc1ccc2c(Oc3ccc4c(C(=O)Nc5ccccc5N)cccc4c3)ccnc2c1` [Control molecule 01, chiauranib, reference compound], in data set [1], the “Selectivity” value was 1.54. In data set [2] (dose 1 μM), the “Apoptosis (%) DNA < 2N” value worked out at 10.23 ± 0.67%, the “Polyploid (%) DNA > 4N” value is given as 3.73 ± 2.95%, the “Tetraploid (%) DNA = 4N” value amounted to 14.80 ± 6.51% and the “Total” value stood at 28.76. For the same compound, in data set [2] (dose 3 μM), the “Apoptosis (%) DNA < 2N” value turned out to be 16.40 ± 6.65%, the “Polyploid (%) DNA > 4N” value stood at 6.40 ± 5.66%, the “Tetraploid (%) DNA = 4N” value is recorded as 16.25 ± 8.13% and the “Total” value came out at 39.05. The Kp at 4 h in data set [3] was determined as 0.28. Moreover, in data set [4], the “Mean tumor volumes (mm^3 ± SEM), Day 9” value amounted to 278.4 ± 35.6 mm^3; the “Tumor volume inhibition rate (% TGI), Day 9” value stood at 74.6%; the “Mean tumor volumes (mm^3 ± SEM), Day 0” value is on record as 191.5 ± 33.9 mm^3. For the same compound, the “Tumor volume inhibition rate (% TGI), Day 9” value in data set [4] (listed as control molecule 01) was found to be 74.6%. In data set [6], the “Inhibitory activity against Aurora B kinase” value is “relatively weak inhibitory activity”. Further, the “Dose-limiting toxicity (DLT)” value in data set [7] is reported as “grade 3 hypertension”. Further, in data set [5], 10.8 nM corresponded to half-maximal inhibition (IC50).

Consider `COc1ccc2c(Oc3ccc4c(C(=O)Nc5ccc(F)cc5N)cccc4c3)ccnc2c1` [Control molecule 02, reference compound], for which the “Selectivity” value in data set [1] came to 4.16. Moreover, in data set [2] (dose 1 μM), the “Apoptosis (%) DNA < 2N” value was found to be 10.07 ± 1.18%, the “Polyploid (%) DNA > 4N” value came to 7.94 ± 3.77%, the “Tetraploid (%) DNA = 4N” value was found to be 18.05 ± 0.35% and the “Total” value is recorded as 36.06. In data set [2] (dose 3 μM), the “Apoptosis (%) DNA < 2N” value is 23.80 ± 2.26%, the “Polyploid (%) DNA > 4N” value came out at 55.70 ± 1.41%, the “Tetraploid (%) DNA = 4N” value was determined as 8.40 ± 4.96% and the “Total” value is 87.90. The Kp at 4 h in data set [3] was found to be 0.27. Moreover, in data set [4], the “Mean tumor volumes (mm^3 ± SEM), Day 9” value worked out at 299.3 ± 68.2 mm^3; the “Tumor volume inhibition rate (% TGI), Day 9” value came out at 68.9%; the “Mean tumor volumes (mm^3 ± SEM), Day 0” value is listed as 192.7 ± 36 mm^3. In addition, the “Tumor volume inhibition rate (% TGI), Day 9” value in data set [4] (listed as control molecule 02) is reported as 68.9%. This compound also registered an IC50 in data set [5] of 2.08 nM.
